Assay results: US20130289083A1, “IDO Inhibitors” (priority 2007, published 2013)
Like-named read-outs stand apart in the source and are kept apart here.

Legend:
human IDO = human IDO (Homo sapiens, UniProt P14902); test: Cell based IDO/kynurenine assay in IDO-293-T-Rex cells; details: kynurenine production, read-out: hIDO EC50
Description: 293-T-REx™ cells (Invitrogen) constitutively express a tet operator binding repressor protein and are maintained in DMEM, 10% FBS, 1× Penicillin+Streptomycin, 2 mM L-glutamine, 5 μg/mL blasticidin at 37° C. with a 5% CO2 in air atmosphere and typically split prior to confluency. Cells were passed by splitting the culture 1/10—by removing media by aspiration, washing 1× with PBS, incubating with 0.25% trypsin/EDTA until the cells detach, disbursing the cells in fresh growth media, and plating at 1/10 dilutions in fresh growth media. For long term cryopreservation, cells are detached from the plate as described above, collected by centrifugation, resuspended in freeze medium (growth medium, 10% DMSO), stored in 1.8 mL cyropreservation vials (˜2−5×10^6 cells per vial), in liquid nitrogen vapor storage tanks.
IDOl-expressing 293-T-Rex™ cell lines were generated by stable transfection of plasmid pcDNA-tetO-IDO expressing human IDO or murine IDO under the control of the doxycycline-inducible CMV-tet promoter. Transfected cells were selected in DBZ medium (DMEM, 10% FBS, 1× Penicillin+Streptomycin, 2 mM L-glutamine, 5 μg/mL blasticidin and 25 μg/ml Zeocin) at 37° C. with a 5% CO2 in air atmosphere. Individual clones were isolated by limiting dilution cloning from these populations.
[…]. The cells incubated in Neutral medium serve as negative control of the assay. The cells incubated in Induction medium and without inhibitor serve as the positive control of the assay. The incubation is carried out for 16 h at 37° C. in a cell culture incubator. 200 μL of medium are transferred to U-bottom polypropylene 96-well plates containing 25 μL of 30% TCA, incubated 30 minutes at 60° C. and centrifuged at 3400 g for 5 minutes. 150 μL of the clear supernatant is transferred to a polystyrene 96-well plate containing 50 μL of 4% (w/v) of p-dimethylaminobenzaldehyde in acetic acid, incubated for 10 min. Kynurenine concentration is determined by measuring the absorbance at 480 nm.
The conditions of the assay were as described in the examples.

murine IDO = target: T1, murine IDO (Mus musculus, UniProt P28776); test: Cell based IDO/kynurenine assay in 293-T-Rex cells expressing murine IDO; details: cells expressing murine IDO, read-out: mIDO EC50
T1 construct: expressed in transfected cells; host or cells: 293-T-REx cells (Invitrogen), doxycycline-inducible CMV-tet promoter
T1 sequence (P28776 whole entry): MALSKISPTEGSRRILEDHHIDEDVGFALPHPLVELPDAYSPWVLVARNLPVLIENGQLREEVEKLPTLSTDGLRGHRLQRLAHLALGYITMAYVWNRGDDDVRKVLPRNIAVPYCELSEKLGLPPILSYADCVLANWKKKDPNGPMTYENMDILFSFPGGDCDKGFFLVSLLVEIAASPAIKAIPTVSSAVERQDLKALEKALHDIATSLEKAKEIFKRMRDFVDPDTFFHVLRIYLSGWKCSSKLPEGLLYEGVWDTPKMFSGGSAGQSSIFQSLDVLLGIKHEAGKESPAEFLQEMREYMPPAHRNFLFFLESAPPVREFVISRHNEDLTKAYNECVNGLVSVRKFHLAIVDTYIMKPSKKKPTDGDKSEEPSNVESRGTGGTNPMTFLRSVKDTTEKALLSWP
Description: Transfected cells were selected in DBZ medium (DMEM, 10% FBS, 1× Penicillin+Streptomycin, 2 mM L-glutamine, 5 μg/mL blasticidin and 25 μg/ml Zeocin) at 37° C. with a 5% CO2 in air atmosphere. Individual clones were isolated by limiting dilution cloning from these populations.
The cells incubated in Neutral medium serve as negative control of the assay. The cells incubated in Induction medium and without inhibitor serve as the positive control of the assay. The incubation is carried out for 16 h at 37° C. in a cell culture incubator. 200 μL of medium are transferred to U-bottom polypropylene 96-well plates containing 25 μL of 30% TCA, incubated 30 minutes at 60° C. and centrifuged at 3400 g for 5 minutes. 150 μL of the clear supernatant is transferred to a polystyrene 96-well plate containing 50 μL of 4% (w/v) of p-dimethylaminobenzaldehyde in acetic acid, incubated for 10 min. Kynurenine concentration is determined by measuring the absorbance at 480 nm.

[1] = target: purified human IDO protein (Homo sapiens, UniProt P14902); test: Enzymatic IDO assay (kynurenine production, absorbance 480 nm); details: enzymatic activity
purified human IDO protein, sequence (P14902 whole entry P110S/E119G): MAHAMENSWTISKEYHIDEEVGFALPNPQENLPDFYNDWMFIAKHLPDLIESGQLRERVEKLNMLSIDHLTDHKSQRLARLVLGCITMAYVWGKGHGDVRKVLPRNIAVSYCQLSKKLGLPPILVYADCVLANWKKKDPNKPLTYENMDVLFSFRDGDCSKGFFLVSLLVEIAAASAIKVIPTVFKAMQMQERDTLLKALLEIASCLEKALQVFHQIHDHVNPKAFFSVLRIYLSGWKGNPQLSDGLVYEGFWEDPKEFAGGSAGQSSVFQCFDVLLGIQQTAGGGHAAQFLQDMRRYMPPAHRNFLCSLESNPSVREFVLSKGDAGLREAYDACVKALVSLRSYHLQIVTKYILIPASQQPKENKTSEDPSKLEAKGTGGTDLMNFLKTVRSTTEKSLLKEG

[2] = Table 16, 293T cells expressing human IDO
[3] = 293T cell line stably expressing human IDO, values reported in ranges
[4] = hIDO IC50, Table 16, recombinant human IDO
[5] = hIDO IC50, recombinant human IDO, values reported in ranges
[6] = Table 15, 293T cells expressing human IDO
[7] = hIDO IC50, Table 15, recombinant human IDO

human IDO, sequence (P14902 whole entry): as the sequence (P14902 whole entry P110S/E119G) above, with S110P, G119E counted along it

Compound	EC50 (human IDO; [2])	EC50 (murine IDO; Table 16)	IC50 [1, 4]	EC50 (human IDO; [6])	IC50 [1, 7]	also measured
O=C(Cc1csc(=S)[nH]1)NCc1ccc2ccccc2c1 [compound 701, N-(Naphthalen-2-ylmethyl)-2-(2-thioxo-2,3-dihydrothiazol-4-yl)acetamide]						EC50 (human IDO; [3]): 100 to 1000 µM; IC50 [1, 5]: 100 to 1000 µM
Nc1ccccc1NC(=O)CCc1csc2ccccc12 [compound 739, N-(2-aminophenyl)-3-(benzo[b]thiophen-3-yl)propanamide]						EC50 (human IDO; [3]): 100 to 1000 µM; IC50 [1, 5]: 100 to 1000 µM
NOCc1ccccc1[N+](=O)[O-] [compound 811, O-(2-nitrobenzyl)hydroxylamine]	< 10 µM	10 to 100 µM	< 10 µM			
O=C(Cc1ccc2ccccc2c1)NO [compound 827, N-hydroxy-2-(naphthalen-2-yl)acetamide]						EC50 (human IDO; [3]): 20 to 100 µM; IC50 [1, 5]: 100 to 1000 µM
O=C1CSC(=S)N1Cc1ccc2ccccc2c1 [compound 830, 3-(Naphthalen-2-ylmethyl)-2-thioxothiazolidin-4-one]						EC50 (human IDO; [3]): 20 to 100 µM; IC50 [1, 5]: 20 to 100 µM
NOCc1ccc(CON)cc1 [compound 1492, O,O′-(1,4-phenylenebis(methylene))bis(hydroxylamine)]	< 10 µM	10 to 100 µM	10 to 100 µM			
NOCc1cccc(Br)c1 [compound 1656, O-(3-bromobenzyl)hydroxylamine]	< 10 µM	< 10 µM	< 10 µM			
NOCc1ccccc1NCc1ccccc1 [compound 1662, 2-(aminooxymethyl)-N-benzylaniline]				< 10 µM	< 10 µM	EC50 (murine IDO; Table 15): 100 to 1000 µM
NOCc1ccccc1 [compound 1666, O-benzylhydroxylamine]	< 10 µM	< 10 µM	< 10 µM			
NOCc1c(F)c(F)c(F)c(F)c1F [compound 1667, O-(perfluorobenzyl)hydroxylamine]	< 10 µM	10 to 100 µM	10 to 100 µM			
NOC1CCCCO1 (stereo not shown) [compound 1669, O-(tetrahydro-2H-pyran-2-yl)hydroxylamine]	< 10 µM	< 10 µM	10 to 100 µM			
NOCc1ccc(F)c(Cl)c1 [compound 1673, O-(3-chloro-4-fluorobenzyl)hydroxylamine]	< 10 µM	> 1000 µM	100 to 1000 µM			
NOCc1c(F)cccc1Cl [compound 1674, O-(2-chloro-6-fluorobenzyl)hydroxylamine]				< 10 µM	10 to 100 µM	EC50 (murine IDO; Table 15): 10 to 100 µM
NOCc1ccc(F)cc1Cl [compound 1676, O-(2-chloro-4-fluorobenzyl)hydroxylamine]				< 10 µM	< 10 µM	EC50 (murine IDO; Table 15): 10 to 100 µM
NOCc1ccccc1C(F)(F)F [compound 1677, O-(2-(trifluoromethyl)benzyl)hydroxylamine]	< 10 µM	10 to 100 µM	< 10 µM			
COc1ccccc1CON [compound 1678, O-(2-methoxybenzyl)hydroxylamine]	< 10 µM	10 to 100 µM	10 to 100 µM			
NOCCOc1ccccc1 [compound 1679, O-(2-phenoxyethyl)hydroxylamine]	< 10 µM	< 10 µM	< 10 µM			
Cc1cccc(CON)c1 [compound 1692, O-(3-methylbenzyl)hydroxylamine]	< 10 µM	10 to 100 µM	10 to 100 µM			
NOCCCc1ccccc1 [compound 1693, O-(3-phenylpropyl)hydroxylamine]	< 10 µM	10 to 100 µM	10 to 100 µM			
Cc1nc(-c2ccccc2)ncc1CON [compound 1740, O-((4-methyl-2-phenylpyrimidin-5-yl)methyl)hydroxylamine]				< 10 µM	10 to 100 µM	EC50 (murine IDO; Table 15): < 10 µM
NOCc1ccc2ncccc2c1 [compound 1741, O-(quinolin-6-ylmethyl)hydroxylamine]				< 10 µM	10 to 100 µM	EC50 (murine IDO; Table 15): < 10 µM
NOC(COCc1ccccc1)c1ccccc1 (stereo not shown) [compound 1933, O-(2-(benzyloxy)-1-phenylethyl)hydroxylamine]				< 10 µM	< 10 µM	
CN(C)c1ccc(-c2ccc(Cl)cc2CON)cc1 [compound 1934, 2′-(aminooxymethyl)-4′-chloro-N,N-dimethylbiphenyl-4-amine]				< 10 µM	< 10 µM	
COC(=O)c1ccc(-c2ccc(Cl)cc2CON)cc1 [compound 1935, methyl 2′-(aminooxymethyl)-4′-chlorobiphenyl-4-carboxylate]				< 10 µM	< 10 µM	

Second part, led by results:

EC50 (human IDO; [2])	EC50 (murine IDO; Table 16)	IC50 [1, 4]	EC50 (human IDO; [6])	IC50 [1, 7]	Compound	also measured
< 10 µM	< 10 µM	< 10 µM			NOCc1cccc([N+](=O)[O-])c1 [compound 317, O-(3-nitrobenzyl)hydroxylamine]	EC50 (human IDO; [3]): < 20 µM; IC50 [1, 5]: < 20 µM
< 10 µM	< 10 µM	< 10 µM			NOCc1ccc(F)cc1 [compound 774, O-(4-fluorobenzyl)hydroxylamine]	
< 10 µM	< 10 µM	< 10 µM			NOCc1ccc(C(F)(F)F)cc1 [compound 934, O-(4-(trifluoromethyl)benzyl)hydroxylamine]	
< 10 µM	10 to 100 µM	10 to 100 µM			NOCc1ccc([N+](=O)[O-])cc1 [compound 1014, O-(4-nitrobenzyl)hydroxylamine]	
			< 10 µM	< 10 µM	NOCc1cc(F)cc(Cl)c1 [compound 1660, O-(3-chloro-5-fluorobenzyl)hydroxylamine]	EC50 (murine IDO; Table 15): < 10 µM
< 10 µM	< 10 µM	< 10 µM			NOCc1ccccc1Br [compound 1675, O-(2-bromobenzyl)hydroxylamine]	
< 10 µM	< 10 µM	< 10 µM			COc1cccc(CON)c1 [compound 1682, O-(3-methoxybenzyl)hydroxylamine]	
< 10 µM	10 to 100 µM	< 10 µM			COC(=O)c1ccc(CON)cc1 [compound 1684, methyl 4-(aminooxymethyl)benzoate]	
			< 10 µM	10 to 100 µM	NOCc1ccncc1 [compound 1737, O-(pyridin-4-ylmethyl)hydroxylamine]	EC50 (murine IDO; Table 15): < 10 µM
			< 10 µM	10 to 100 µM	NOCc1ccccn1 [compound 1739, O-(pyridin-2-ylmethyl)hydroxylamine]	EC50 (murine IDO; Table 15): < 10 µM
			> 1000 µM	10 to 100 µM	NCC(ON)c1ccccc1 (stereo not shown) [compound 1875, 2-(aminooxy)-2-phenylethanamine]	
			< 10 µM	< 10 µM	NOCc1cc(Cl)ccc1-c1ccc2[nH]ccc2c1 [compound 1930, O-(5-chloro-2-(1H-indol-5-yl)benzyl)hydroxylamine]	
			< 10 µM	< 10 µM	NOCc1cc(Cl)ccc1-c1cccs1 [compound 1931, O-(5-chloro-2-(thiophen-2-yl)benzyl)hydroxylamine]	
			< 10 µM	< 10 µM	NOCc1cc(Cl)ccc1-c1ccsc1 [compound 1932, O-(5-chloro-2-(thiophen-3-yl)benzyl)hydroxylamine]	
			< 10 µM	< 10 µM	NOC(COc1ccccc1)c1ccccc1 (stereo not shown) [compound 1937, O-(2-phenoxy-1-phenylethyl)hydroxylamine]	
			< 10 µM	< 10 µM	NOC(CCC1CCCCC1)c1ccccc1 (stereo not shown) [compound 1938, O-(3-cyclohexyl-1-phenylpropyl)hydroxylamine]	
